From patent publication US12091426B2, “Bifunctional degraders of hematopoietic progenitor kinase and therapeutic uses thereof” (Nurix Therapeutics, Inc., priority 2021, dated 2024)

Target: T1, HPK1 (Homo sapiens, UniProt Q92918)
T1 construct: A HiBiT tag was introduced by CRISPR on the N terminus of HPK1 in Jurkat cells; host or cells: Jurkat cells (ATCC TIB-152), monoclonal line with CRISPR knock-in of HiBiT at the endogenous HPK1 locus
Assay: HPK1 Cellular HiBit Degradation Assay
Type: cell-based
Conditions: HiBiT HPK1 Jurkat cells, 24 hrs; for DC50: concentration at which 50% of HPK1 was remaining, read-out: DC50 Category; for Dmax: Jurkat, maximum degradation vs DMSO vehicle control, read-out: Dmax Category
Summary of the method: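 Jurkat cells with CRISPR N-terminal HiBiT-tagged endogenous HPK1 treated 24 h at 37 °C with 11-point, 3.16-fold dilutions (10 uM to 0.1 nM final). HiBiT lytic luminescence gives % HPK1 remaining versus DMSO, with parental cells as background. Four-parameter fit yields DC50; Dmax = 100 minus lowest % remaining.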

T1 sequence (Q92918 whole entry): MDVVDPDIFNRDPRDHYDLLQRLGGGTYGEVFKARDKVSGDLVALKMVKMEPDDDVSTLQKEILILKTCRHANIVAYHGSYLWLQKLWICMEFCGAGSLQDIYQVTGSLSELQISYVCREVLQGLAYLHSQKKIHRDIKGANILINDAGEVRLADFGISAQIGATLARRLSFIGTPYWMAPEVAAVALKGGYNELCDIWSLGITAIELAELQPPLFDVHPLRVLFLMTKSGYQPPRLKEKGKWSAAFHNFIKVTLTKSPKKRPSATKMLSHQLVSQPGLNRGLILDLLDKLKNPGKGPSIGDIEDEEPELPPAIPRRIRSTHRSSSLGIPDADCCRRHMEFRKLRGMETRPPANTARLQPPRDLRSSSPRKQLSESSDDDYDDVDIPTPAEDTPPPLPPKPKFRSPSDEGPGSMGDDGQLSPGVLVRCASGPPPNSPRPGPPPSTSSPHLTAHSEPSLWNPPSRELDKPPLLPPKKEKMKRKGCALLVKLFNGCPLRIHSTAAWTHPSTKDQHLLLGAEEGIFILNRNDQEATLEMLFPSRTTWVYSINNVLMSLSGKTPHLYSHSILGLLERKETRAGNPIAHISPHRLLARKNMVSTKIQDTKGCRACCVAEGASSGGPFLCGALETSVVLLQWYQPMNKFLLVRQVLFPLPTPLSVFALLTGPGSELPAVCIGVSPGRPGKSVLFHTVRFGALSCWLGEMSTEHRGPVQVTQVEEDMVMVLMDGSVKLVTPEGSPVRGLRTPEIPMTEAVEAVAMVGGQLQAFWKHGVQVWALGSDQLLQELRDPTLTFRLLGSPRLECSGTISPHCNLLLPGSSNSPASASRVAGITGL

| DC50 [nM] | Dmax [%] | Compound |
| --- | --- | --- |
| < 100 | 70 to 85 | CC(C)n1cnc2cc(-c3ccc4c(c3)N([C@H]3C[C@@H](N5CCCCC5)C3)C(=O)C43CCN(C(=O)C4CCN(C(=O)C5CCN(c6ccc(C7CCC(=O)NC7=O)cn6)CC5)C5(CCC5)C4)CC3)nc(NC3CC3)c21 (mixture of isomers) [Example 270, (3RS)-3-(6-{4-[8-({6-[4-(cyclopropylamino)-3-(propan-2-yl)-3H-imidazo[4,5-c]pyridin-6-yl]-2-oxo-1-[(1S,3S)-3-(piperidin-1-yl)cyclobutyl]-1,2-dihydrospiro[indole-3,4′-piperidin]-1′-yl}carbonyl)-5-azaspiro[3.5]nonane-5-carbonyl]piperidin-1-yl}pyridin-3-yl)piperidine-2,6-dione] |
| < 100 | 70 to 85 | CC(C)n1cnc2cc(-c3ccc4c(c3)N([C@H]3C[C@@H](N5CCCCC5)C3)C(=O)C43CCN(C(=O)C4CCN(C(=O)[C@H]5CC[C@H](Cn6ncc7cc(C8CCC(=O)NC8=O)ccc76)CC5)CC4)CC3)nc(Nc3ccccc3F)c21 (mixture of isomers) [Example 64, (3RS)-3-(1-{[(1R,4R)-4-{4-[(6-{4-[(2-fluorophenyl)amino]-3-(propan-2-yl)-3H-imidazo[4,5-c]pyridin-6-yl}-2-oxo-1-[(1S,3S)-3-(piperidin-1-yl)cyclobutyl]-1,2-dihydrospiro[indole-3,4′-piperidin]-1′-yl)carbonyl]piperidine-1-carbonyl}cyclohexyl]methyl}-1H-indazol-5-yl)piperidine-2,6-dione] |
| < 100 | 70 to 85 | CC(C)n1cnc2cc(-c3ccc4c(c3)N([C@H]3C[C@@H](N5CCCCC5)C3)C(=O)C43CCN(C(=O)C4(C)CCN(C(=O)[C@H]5CC[C@H](Nc6ccc(N7CCC(=O)NC7=O)cn6)CC5)CC4)CC3)nc(NC3CC3)c21 [Example 192, 1-(6-{[(1R,4R)-4-[4-({6-[4-(cyclopropylamino)-3-(propan-2-yl)-3H-imidazo[4,5-c]pyridin-6-yl]-2-oxo-1-[(1S,3S)-3-(piperidin-1-yl)cyclobutyl]-1,2-dihydrospiro[indole-3,4′-piperidin]-1′-yl}carbonyl)-4-methylpiperidine-1-carbonyl]cyclohexyl]amino}pyridin-3-yl)-1,3-diazinane-2,4-dione] |
| < 100 | > 85 | CC(C)n1cnc2cc(-c3ccc4c(c3)N([C@H]3C[C@@H](N5CCCCC5)C3)C(=O)C43CCN(C(=O)C4CCN(C(=O)C5CCN(c6ccc(C7CCC(=O)NC7=O)cn6)CC5)CC4)CC3)nc(Nc3ccccc3F)c21 (mixture of isomers) [Example 74, (3RS)-3-[6-(4-{4-[(6-{4-[(2-fluorophenyl)amino]-3-(propan-2-yl)-3H-imidazo[4,5-c]pyridin-6-yl}-2-oxo-1-[(1S,3S)-3-(piperidin-1-yl)cyclobutyl]-1,2-dihydrospiro[indole-3,4′-piperidin]-1′-yl)carbonyl]piperidine-1-carbonyl}piperidin-1-yl)pyridin-3-yl]piperidine-2,6-dione] |
| < 100 | 50 to 70 | CC(C)n1cnc2cc(-c3ccc4c(c3)N([C@H]3C[C@@H](N5CCCCC5)C3)C(=O)C43CCN(C(=O)C4CCN(C(=O)[C@H]5CC[C@H](N(C)c6ccc(C7CCC(=O)NC7=O)cn6)CC5)CC4)CC3)nc(Nc3ccncc3F)c21 (mixture of isomers) [Example 132, (3RS)-3-(6-{methyl[(1R,4R)-4-{4-[(6-{4-[(3-Fluoropyridin-4-yl)amino]-3-(propan-2-yl)-3H-imidazo[4,5-c]pyridin-6-yl}-2-oxo-1-[(1S,3S)-3-(piperidin-1-yl)cyclobutyl]-1,2-dihydrospiro[indole-3,4′-piperidin]-1′-yl)carbonyl]piperidine-1-carbonyl}cyclohexyl]amino}pyridin-3-yl)piperidine-2,6-dione] |
| < 100 | 70 to 85 | CC(C)n1cnc2cc(-c3ccc4c(c3)N([C@H]3C[C@@H](N5CCCCC5)C3)C(=O)C43CCN(C(=O)[C@@H]4[C@H]5CCN(C(=O)C6CCN(c7ccc(C8CCC(=O)NC8=O)cn7)CC6)[C@H]54)CC3)nc(Nc3ccccc3F)c21 (mixture of isomers) [Example 266, (3RS)-3-(6-{4-[(1R,5R,6R)-6-[(6-{4-[(2-fluorophenyl)amino]-3-(propan-2-yl)-3H-imidazo[4,5-c]pyridin-6-yl}-2-oxo-1-[(1S,3S)-3-(piperidin-1-yl)cyclobutyl]-1,2-dihydrospiro[indole-3,4′-piperidin]-1′-yl)carbonyl]-2-azabicyclo[3.1.0]hexane-2-carbonyl]piperidin-1-yl}pyridin-3-yl)piperidine-2,6-dione] |
| 100 to 500 | 50 to 70 | CC(C)n1cnc2cc(-c3ccc4c(c3)N([C@H]3C[C@@H](N5CCOCC5)C3)C(=O)C43CCN(C(=O)C4(C)CCN(C(=O)C5CCN(c6ccc(C7CCC(=O)NC7=O)cn6)CC5)CC4)CC3)nc(NC3CC3)c21 (mixture of isomers) [Example 216, (3RS)-3-(6-{4-[4-({6-[4-(cyclopropylamino)-3-(propan-2-yl)-3H-imidazo[4,5-c]pyridin-6-yl]-2-oxo-1-[(1S,3S)-3-(MORPHOLIN-4-yl)cyclobutyl]-1,2-dihydrospiro[indole-3,4′-piperidin]-1′-yl}carbonyl)-4-methylpiperidine-1-carbonyl]piperidin-1-yl}pyridin-3-yl)piperidine-2,6-dione] |
| < 100 | 50 to 70 | CC(C)n1cnc2cc(-c3ccc4c(c3)N([C@H]3C[C@@H](N5CCCCC5)C3)C(=O)C43CCN(C(=O)[C@H]4CCN(C(=O)[C@H]5CC[C@@H](Nc6cccc7c6n(C)c(=O)n7C6CCC(=O)NC6=O)CC5)C4)CC3)nc(Nc3ccccc3F)c21 (mixture of isomers) [Example 143, (3RS)-3-(3-methyl-2-oxo-4-{[(1R,4R)-4-[(3S)-3-[(6-{4-[(2-fluorophenyl)amino]-3-(propan-2-yl)-3H-imidazo[4,5-c]pyridin-6-yl}-2-oxo-1-[(1S,3S)-3-(piperidin-1-yl)cyclobutyl]-1,2-dihydrospiro[indole-3,4′-piperidin]-1′-yl)carbonyl]pyrrolidine-1-carbonyl]cyclohexyl]amino}-2,3-dihydro-1H-1,3-benzodiazol-1-yl)piperidine-2,6-dione] |
| < 100 | > 85 | CC(C)n1cnc2cc(-c3ccc4c(c3)N([C@H]3C[C@@H](N5CCCCC5)C3)C(=O)C43CCN(C(=O)C4C5COCC4CN(C(=O)C4CCN(c6ccc(C7CCC(=O)NC7=O)cn6)CC4)C5)CC3)nc(NC3CC3)c21 (mixture of isomers) [Example 288, (3RS)-3-(6-{4-[9-({6-[4-(cyclopropylamino)-3-(propan-2-yl)-3H-imidazo[4,5-c]pyridin-6-yl]-2-oxo-1-[(1S,3S)-3-(piperidin-1-yl)cyclobutyl]-1,2-dihydrospiro[indole-3,4′-piperidin]-1′-yl}carbonyl)-3-oxa-7-azabicyclo[3.3.1]nonane-7-carbonyl]piperidin-1-yl}pyridin-3-yl)piperidine-2,6-dione] |
| 100 to 500 | > 85 | CC(C)n1cnc2cc(-c3ccc4c(c3)N([C@H]3C[C@@H](N5CCCCC5)C3)C(=O)C43CCN(C(=O)C4CCN(C(=O)C5CCN(c6ccc(C7CCC(=O)NC7=O)cn6)CC5)CC4)CC3)nc(Oc3ccccc3F)c21 (mixture of isomers) [Example 76, (3RS)-3-(6-{4-[4-({6-[4-(2-fluorophenoxy)-3-(propan-2-yl)-3H-imidazo[4,5-c]pyridin-6-yl]-2-oxo-1-[(1S,3S)-3-(piperidin-1-yl)cyclobutyl]-1,2-dihydrospiro[indole-3,4′-piperidin]-1′-yl}carbonyl)piperidine-1-carbonyl]piperidin-1-yl}pyridin-3-yl)piperidine-2,6-dione] |
| < 100 | 70 to 85 | CC(C)n1cnc2cc(-c3ccc4c(c3)N([C@H]3C[C@@H](N5CCCCC5)C3)C(=O)C43CCN(C(=O)[C@]4(C)CCN(C(=O)C5CCN(c6ccc([C@@H]7CCC(=O)NC7=O)cc6)CC5)C4)CC3)nc(NC3CC3)c21 (racemic) [Example 244, (3RS)-3-(4-{4-[(3R)-3-({6-[4-(cyclopropylamino)-3-(propan-2-yl)-3H-imidazo[4,5-c]pyridin-6-yl]-2-oxo-1-[(1S,3S)-3-(piperidin-1-yl)cyclobutyl]-1,2-dihydrospiro[indole-3,4′-piperidin]-1′-yl}carbonyl)-3-methylpyrrolidine-1-carbonyl]piperidin-1-yl}phenyl)piperidine-2,6-dione] |

| Compound | DC50 [nM] | Dmax [%] |
| --- | --- | --- |
| CC(C)n1cnc2cc(-c3ccc4c(c3)N([C@H]3C[C@@H](N5C6CCC5COC6)C3)C(=O)C43CCN(C(=O)C4(C)CCN(C(=O)C5CCN(c6ccc(C7CCC(=O)NC7=O)cn6)CC5)CC4)CC3)nc(NC3CC3)c21 (mixture of isomers) [Example 215, (3RS)-3-(6-{4-[4-({6-[4-(cyclopropylamino)-3-(propan-2-yl)-3H-imidazo[4,5-c]pyridin-6-yl]-2-oxo-1-[(1S,3S)-3-{3-oxa-8-azabicyclo[3.2.1]octan-8-yl}cyclobutyl]-1,2-dihydrospiro[indole-3,4′-piperidin]-1′-yl}carbonyl)-4-methylpiperidine-1-carbonyl]piperidin-1-yl}pyridin-3-yl)piperidine-2,6-dione] | < 100 | 70 to 85 |
| CC(C)n1cnc2cc(-c3ccc4c(c3)N([C@H]3C[C@@H](N5CCCCC5)C3)C(=O)C43CCN(C(=O)C4C5CC4CN(C(=O)[C@H]4CC[C@H](Oc6ccc(C7CCC(=O)NC7=O)cc6)CC4)C5)CC3)nc(NC3CC3)c21 (stereo partly drawn) [Example 241, 3-(4-{[(1R,4R)-4-[6-({6-[4-(cyclopropylamino)-3-(propan-2-yl)-3H-imidazo[4,5-c]pyridin-6-yl]-2-oxo-1-[(1S,3S)-3-(piperidin-1-yl)cyclobutyl]-1,2-dihydrospiro[indole-3,4′-piperidin]-1′-yl}carbonyl)-3-azabicyclo[3.1.1]heptane-3-carbonyl]cyclohexyl]oxy}phenyl)piperidine-2,6-dione] | < 100 | > 85 |
